From ChEMBL document CHEMBL1201862, “PubChem BioAssay data set” (2004)
Active and inactive are the calls of the source.

Legend:
Cytochrome P450 2D6 = Cytochrome P450 2D6 (Homo sapiens, UniProt P10635);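 also: CYP2D6 member of a cytochrome P450 panel assay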
Cytochrome P450 2C19 = Cytochrome P450 2C19 (Homo sapiens, UniProt P33261); assay: Cytochrome panel assay with activity outcomes. Panel member name: p450-cyp2c19 Compounds with AC50 equal or less than 10 uM are considered active; format: functional
Cytochrome P450 2C9 = Cytochrome P450 2C9 (Homo sapiens, UniProt P11712)
INS1 = assay: beta cell apoptosis inhibitors, cytokine rescue, dose response, luminescence, retest (AID 449756); format: functional, cell-based; settings: Rattus norvegicus;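 also: cell death triggered by IL-1 beta plus TNF-alpha plus IFN-gamma mixture; protective hits raise ATP signal compared with cytokine alone wells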
[1] = inhibitors of firefly luciferase expression or activity, dose response, H4 neuroglioma cells, luminescence (AID 1990); format: functional, cell-based
[2] = Luminescence Cell-Based Dose Response HTS to Identify Inhibitors of 5'UTR Stem-Loop Driven Prion Protein mRNA Translation in H4 Neuroglioblastoma Cells. [Related pubchem assays: 1827 (Project Summary), 1813 (Primary HTS)]; format: functional
[3] = inhibitors of SNCA 5'UTR-driven reporter translation, confirmation, H4 neuroglioma cells, luminescence (AID 1988); format: functional, cell-based
[4] = inhibitors of intracellular T. cruzi replication, confirmation, NIH3T3 host cells, beta-gal luminescence (AID 2044); format: functional, cell-based;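 also: intracellular parasites grown in NIH/3T3 mouse fibroblasts as host cells; luminescent beta-galactosidase reporter signal from transgenic T. cruzi replicating inside host cells; inhibitors lower the luminescence signal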
[5] = cytotoxicity toward NIH3T3 fibroblasts, dose response, counter-screen, cell-based, ATP luminescence, mouse fibroblasts (AID 2010); format: functional;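 also: cells exposed to compound for about 90 hours before reading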

Sequence of Cytochrome P450 2C19 (P33261 whole entry): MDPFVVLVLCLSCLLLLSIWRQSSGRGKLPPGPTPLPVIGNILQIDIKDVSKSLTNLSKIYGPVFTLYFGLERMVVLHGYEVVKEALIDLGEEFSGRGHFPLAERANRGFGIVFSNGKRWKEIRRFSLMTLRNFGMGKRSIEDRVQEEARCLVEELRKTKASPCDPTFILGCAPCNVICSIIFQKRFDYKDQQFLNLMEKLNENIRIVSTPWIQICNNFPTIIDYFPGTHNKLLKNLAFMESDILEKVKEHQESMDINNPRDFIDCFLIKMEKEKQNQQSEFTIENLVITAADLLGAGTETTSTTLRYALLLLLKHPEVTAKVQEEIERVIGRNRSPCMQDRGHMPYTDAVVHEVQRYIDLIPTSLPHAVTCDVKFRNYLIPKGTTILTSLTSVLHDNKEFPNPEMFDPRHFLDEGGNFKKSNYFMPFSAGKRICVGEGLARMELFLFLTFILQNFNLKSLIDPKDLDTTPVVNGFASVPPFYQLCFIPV
Sequence of Cytochrome P450 2D6 (P10635 whole entry): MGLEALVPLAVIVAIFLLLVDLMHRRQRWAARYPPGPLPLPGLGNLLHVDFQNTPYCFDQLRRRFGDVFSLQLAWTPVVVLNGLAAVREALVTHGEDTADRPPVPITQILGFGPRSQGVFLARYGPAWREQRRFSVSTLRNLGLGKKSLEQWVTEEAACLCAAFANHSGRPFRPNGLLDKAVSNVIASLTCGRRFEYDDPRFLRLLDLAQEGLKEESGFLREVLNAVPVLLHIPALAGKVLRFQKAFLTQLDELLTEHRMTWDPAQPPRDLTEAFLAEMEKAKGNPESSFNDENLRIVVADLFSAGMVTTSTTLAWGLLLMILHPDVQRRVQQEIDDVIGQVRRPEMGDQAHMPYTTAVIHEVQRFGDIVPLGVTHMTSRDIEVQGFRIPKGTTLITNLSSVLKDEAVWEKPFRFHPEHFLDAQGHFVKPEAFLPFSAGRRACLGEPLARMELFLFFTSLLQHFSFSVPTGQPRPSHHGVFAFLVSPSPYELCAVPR
Sequence of Cytochrome P450 2C9 (P11712 whole entry): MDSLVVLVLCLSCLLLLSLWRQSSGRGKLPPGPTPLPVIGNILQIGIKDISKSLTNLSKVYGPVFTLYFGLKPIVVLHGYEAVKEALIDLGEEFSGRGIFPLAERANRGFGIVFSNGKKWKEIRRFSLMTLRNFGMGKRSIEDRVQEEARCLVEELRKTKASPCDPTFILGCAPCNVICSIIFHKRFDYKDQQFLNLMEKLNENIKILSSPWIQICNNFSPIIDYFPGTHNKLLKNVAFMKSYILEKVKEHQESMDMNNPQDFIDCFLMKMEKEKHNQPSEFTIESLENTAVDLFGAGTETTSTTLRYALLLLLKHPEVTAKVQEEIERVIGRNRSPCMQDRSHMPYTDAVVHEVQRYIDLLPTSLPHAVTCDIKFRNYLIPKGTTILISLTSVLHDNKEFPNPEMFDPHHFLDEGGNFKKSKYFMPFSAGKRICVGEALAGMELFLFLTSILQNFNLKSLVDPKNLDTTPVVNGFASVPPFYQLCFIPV

Cc1c(CCO)c(=O)n(C)n1C(=O)c1ccc(F)cc1
AC50 (Cytochrome P450 2D6): 22.4 µM (inconclusive)

COCCn1c(=O)c(C)nc2cnc(Oc3ccc(OC)cc3)nc21
AC50 (Cytochrome P450 2C19; read-out: AC50): 39.8 µM (inconclusive) | AC50 (Cytochrome P450 2C9): 20 µM (inconclusive)

COc1ccc(-c2ccc([C@H]3[C@@H]4C=CCC[C@@]4(C)C(=O)N3Cc3ccccc3)c(F)c2)cc1
AC50 (INS1): 13.2 µM (active)

CCN(CC)C(=O)C1CC(=O)N(c2ccc(OC)cc2)C1c1ccc(OC)cc1 (stereo unspecified)
AC50 (Cytochrome P450 2C19; read-out: AC50): 39.8 µM (inconclusive)

CN(Cc1ccco1)c1ncnc2ccc(-c3ccccc3C(F)(F)F)cc12
AC50 (Cytochrome P450 2C9): 1 µM (inconclusive)

CC(C)c1ccc(Cn2ccc3c4c(N)nc(NC5CC5)nc4ccc32)cc1
AC50 (Cytochrome P450 2C19; read-out: AC50): 31.6 µM (inconclusive)

COc1ccccc1N1CCN(c2nc(C)nc3c2oc2ccccc23)CC1
EC50 [1]: 10.3 µM (active) | EC50 [2]: 0.842 µM (active) | EC50 [3]: 0.193 µM (active)

O=c1cc(N2CCCCC2)c(-c2ccccc2)nn1Cc1ccc(F)cc1
EC50 [4]: 2.17 µM (active) | EC50 [5]: 9.08 µM (active)

COc1ccc(OC)c(-c2nc(CN3CCCCC3c3cccnc3)c(C)o2)c1 (stereo unspecified)
EC50 [4]: 2.02 µM (active) | EC50 [5]: > 60 µM (not active)

Fc1cccc(Cl)c1-c1nnc2ccc3ccccc3n12
AC50 (INS1): 10 µM (active)

COc1cccc(-n2c(CN3CCN(c4cccc(C)c4)C(C)C3)nc3ccc([N+](=O)[O-])cc3c2=O)c1 (stereo unspecified)
EC50 [4]: 1.91 µM (active) | EC50 [5]: > 60 µM (not active)

O=C(CON1C(=O)c2ccccc2C1=O)c1ccccc1
AC50 (Cytochrome P450 2C9): 6.31 µM (inconclusive)

O=C(Nc1ccc([N+](=O)[O-])cn1)c1cc(-c2cccc(Cl)c2)nc2ccccc12
EC50 [4]: 0.809 µM (active) | EC50 [5]: > 30 µM (not active)

Cc1ccc2cc(CN(Cc3ccco3)C(=O)NC3CCCCC3)c(O)nc2c1C
EC50 [1]: 15.9 µM (active) | EC50 [2]: 16.4 µM (active) | EC50 [3]: 13.6 µM (active)

COc1cccc(CC2(CO)CCCN(Cc3ccc(CN4CCCCC4)s3)C2)c1 (stereo unspecified)
EC50 [4]: 0.253 µM (active) | EC50 [5]: 9.85 µM (active)

CC(=O)OC[C@@H]1O[C@H](C/C=N\O[C@@H](C)c2cn([C@H]3COC[C@H]3O)nn2)C=C[C@@H]1OC(C)=O
AC50 (Cytochrome P450 2C19): inconclusive

Cc1cccc(C(=O)N[C@H](C(=O)Nc2nc3ccc(S(C)(=O)=O)cc3s2)C(C)C)c1
EC50 [1]: > 120 µM (not active) | EC50 [2]: > 120 µM (not active) | EC50 [3]: > 120 µM (not active)

Cc1c(C(=O)N(Cc2ccccc2)C(C)C)oc2ccc(S(=O)(=O)N3CCOCC3)cc12
AC50 (INS1): 48 µM (active)

COc1cc(C(=O)NC(=S)NNC(=O)c2cnccn2)cc(OC)c1OC
AC50 (INS1): 1.27 µM (active)

CCN(CC)c1ccc(/N=C/c2cc(Br)ccc2O)cc1
EC50 [4]: 4.39 µM (active) | EC50 [5]: > 60 µM (inconclusive)

CCC/C=C(\CCC)C(NC(=O)Oc1ccc(F)cc1)c1ccc(C(=O)OC)cc1 (stereo unspecified)
AC50 (Cytochrome P450 2C9): 39.8 µM (inconclusive)

COc1ccc(Cc2noc(CN3CCCN(C4Cc5ccccc5C4)CC3)n2)cc1OC
EC50 [4]: 1.3 µM (active) | EC50 [5]: > 60 µM (not active)

CC(=O)n1cc([C@H]2C=C(C(=O)N3CCN(Cc4ccccc4)CC3)O[C@@H](OCc3ccc(CO)cc3)C2)c2ccccc21
EC50 [4]: 0.435 µM (active) | EC50 [5]: > 30 µM (not active)

O=C(Cn1ncc2c(=O)oc3ccccc3c21)N1CCCc2ccccc21
EC50 [1]: > 120 µM (not active) | EC50 [2]: 6.05 µM (active) | EC50 [3]: > 120 µM (not active)

CC1CCN(C(NC(=O)c2ccco2)C(=O)c2ccccc2)CC1 (stereo unspecified)
AC50 (Cytochrome P450 2D6): 15.8 µM (inconclusive)

COc1cc2c3cc1Oc1cc(ccc1O)C[C@@H]1c4c(cc(OC)c(O)c4Oc4ccc(cc4)C[C@H]3[N+](C)(C)CC2)CC[N+]1(C)C
AC50 (Cytochrome P450 2C19): inconclusive

O=C(N/N=C/c1ccc([N+](=O)[O-])o1)c1ccc2c(c1)OCO2
EC50 [4]: 0.172 µM (active) | EC50 [5]: > 30 µM (not active)

CCc1c2c(nc3ccc(OC)cc13)COC2
AC50 (Cytochrome P450 2C19; read-out: AC50): 20 µM (inconclusive) | AC50 (Cytochrome P450 2D6): 20 µM (inconclusive)

O=c1c(Cc2ccccc2)c(O)nc2n1CCS2
AC50 (Cytochrome P450 2C19; read-out: AC50): 14.1 µM (inconclusive) | AC50 (Cytochrome P450 2C9): 14.1 µM (inconclusive)

O=C1CC(c2ccc3c(c2)OCO3)CN1 (stereo unspecified)
AC50 (Cytochrome P450 2C19; read-out: AC50): 39.8 µM (inconclusive)

COc1ncc2nc(-c3cccs3)c(=O)n(Cc3ccc(F)cc3)c2n1
AC50 (Cytochrome P450 2D6): 0.398 µM (inconclusive)
